# ChEMBL document CHEMBL1201862, “PubChem BioAssay data set” (2004)
# Activity calls are given as the source filed them.
# What was measured:
# [1] = biological target: T1, Delta-type opioid receptor (Homo sapiens, UniProt P41143); experiment: HTS Image-Based Screen for Antagonists of the DOR Receptor. [Related pubchem assays (depositor defined):AID1777, AID1785, AID1786, AID2133]; type: functional
# [2] = biological target: Mu-type opioid receptor (Homo sapiens, UniProt P35372); experiment: HTS Image-Based Screen for Agonists of the MOR Receptor. [Related pubchem assays (depositor defined):AID1777, AID1785, AID1786, AID2133]; type: functional;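 also: imaging of beta-arrestin GFP recruitment into spots after receptor activation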
# Sequence of Mu-type opioid receptor (P35372 whole entry): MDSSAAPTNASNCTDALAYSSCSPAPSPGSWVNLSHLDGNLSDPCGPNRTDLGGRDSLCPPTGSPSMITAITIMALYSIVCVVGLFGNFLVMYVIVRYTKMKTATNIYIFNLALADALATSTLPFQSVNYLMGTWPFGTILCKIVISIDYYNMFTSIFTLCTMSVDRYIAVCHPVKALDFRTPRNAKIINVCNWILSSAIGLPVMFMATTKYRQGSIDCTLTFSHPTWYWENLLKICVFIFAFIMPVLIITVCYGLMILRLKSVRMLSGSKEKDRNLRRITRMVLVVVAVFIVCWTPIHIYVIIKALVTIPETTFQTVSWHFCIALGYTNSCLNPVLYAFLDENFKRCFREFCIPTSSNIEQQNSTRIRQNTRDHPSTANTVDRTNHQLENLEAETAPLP
# [3] = system: Streptococcus sp. 'group A'; experiment: growth inhibition of control SK(-) GAS strain, dose response, counter-screen for streptokinase expression inhibitor project, luminescence, kanamycin, BacTiterGlo, confirmation (AID 1900); type: functional, organism-based
# [4] = biological target: T1, Delta-type opioid receptor; experiment: HTS Image-Based Screen for Agonists of the DOR Receptor. [Related pubchem assays (depositor defined):AID1777, AID1786, AID2133]; type: functional
# [5] = biological target: T2, Kappa-type opioid receptor (Homo sapiens, UniProt P41145); type: functional
# T2 sequence (P41145 whole entry): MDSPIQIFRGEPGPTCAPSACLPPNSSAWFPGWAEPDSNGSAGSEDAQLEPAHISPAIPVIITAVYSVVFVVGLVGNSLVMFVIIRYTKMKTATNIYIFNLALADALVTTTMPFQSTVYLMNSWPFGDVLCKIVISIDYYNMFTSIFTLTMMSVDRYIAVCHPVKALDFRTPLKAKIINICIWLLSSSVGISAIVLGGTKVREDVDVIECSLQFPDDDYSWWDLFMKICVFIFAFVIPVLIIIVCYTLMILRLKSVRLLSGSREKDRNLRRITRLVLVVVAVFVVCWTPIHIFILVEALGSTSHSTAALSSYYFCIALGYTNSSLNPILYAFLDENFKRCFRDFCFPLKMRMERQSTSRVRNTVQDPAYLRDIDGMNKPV
# [6] = biological target: Beta-galactosidase (Escherichia coli, UniProt Q8VNN2); type: functional
# [7] = biological target: T2, Kappa-type opioid receptor; type: functional; remark: listed apart in the source
# [8] = system: Streptococcus; experiment: Group A Streptococcus viability loss, dose response, counter-screen for streptokinase expression inhibitor project, luminescence, BacTiterGlo (AID 1915); type: functional, organism-based;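 also: potency for reduction of bacterial viability or growth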
# [9] = biological target: Heat shock protein HSP 90-alpha (Homo sapiens, UniProt P07900); type: functional, organism-based
# [10] = biological target: HSP90 (Plasmodium falciparum 3D7, UniProt Q8IL32); type: functional, organism-based
# Sequence of HSP90 (Q8IL32 whole entry): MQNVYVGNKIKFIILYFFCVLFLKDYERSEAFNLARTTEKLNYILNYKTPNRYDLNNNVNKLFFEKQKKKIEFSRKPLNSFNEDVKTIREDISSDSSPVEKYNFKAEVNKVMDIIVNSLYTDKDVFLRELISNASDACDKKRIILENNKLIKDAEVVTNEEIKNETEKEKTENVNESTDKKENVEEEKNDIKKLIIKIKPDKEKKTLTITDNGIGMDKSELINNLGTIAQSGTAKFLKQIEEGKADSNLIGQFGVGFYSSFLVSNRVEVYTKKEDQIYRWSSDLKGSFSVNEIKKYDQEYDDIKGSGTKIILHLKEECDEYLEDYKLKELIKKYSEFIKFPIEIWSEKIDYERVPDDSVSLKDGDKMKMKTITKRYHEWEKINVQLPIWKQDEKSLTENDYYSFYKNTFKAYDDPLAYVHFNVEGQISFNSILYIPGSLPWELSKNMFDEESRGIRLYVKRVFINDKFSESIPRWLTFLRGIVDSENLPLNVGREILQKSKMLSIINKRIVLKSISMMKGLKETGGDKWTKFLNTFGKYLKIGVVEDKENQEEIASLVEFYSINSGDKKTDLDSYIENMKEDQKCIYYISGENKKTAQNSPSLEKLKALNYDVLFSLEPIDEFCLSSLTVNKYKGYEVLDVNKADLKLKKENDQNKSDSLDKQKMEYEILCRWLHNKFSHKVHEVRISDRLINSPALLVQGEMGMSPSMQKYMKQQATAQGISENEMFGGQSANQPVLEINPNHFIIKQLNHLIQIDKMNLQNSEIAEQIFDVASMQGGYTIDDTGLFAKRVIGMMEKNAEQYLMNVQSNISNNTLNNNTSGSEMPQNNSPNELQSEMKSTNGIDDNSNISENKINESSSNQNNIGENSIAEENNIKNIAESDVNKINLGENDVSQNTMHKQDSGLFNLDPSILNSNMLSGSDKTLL
# [11] = HeLa 2N DNA content increase, dose response, cell-based, IC50 (AID 1117349); type: functional
# [12] = Concentration-dependent survival of SW480 colon cancer line, luminescence detection with CellTiter-Glo, half-maximal inhibitory concentration (AID 1117338); type: functional
# [13] = RKO cell viability reduction, dose response, CellTiter-Glo luminescence (AID 1117322); type: functional
# [14] = cytotoxicity toward HCT116 cells – cell-based, CellTiter-Glo luminescence, IC50, dose response (AID 1117332); type: functional; details: HCT-116
# [15] = SNU-C1 cell viability reduction, dose response, CellTiter-Glo luminescence (AID 1117323); type: functional, cell-based
# [16] = cytotoxicity toward Colo320 cells – cell-based, CellTiter-Glo luminescence, IC50, dose response (AID 1117334); type: functional; details: COLO 320
# [17] = HeLa 4N DNA content increase, dose response, cell-based, IC50 (AID 1117351); type: functional
# [18] = cytotoxicity toward HT-29 cells – cell-based, CellTiter-Glo luminescence, IC50, dose response (AID 1117330); type: functional
# [19] = CellTiter-Glo luminescent dose response of DLD-1 viability loss (AID 1117352); type: functional
# [20] = HCT116 cell viability decrease, GSK3B pretreatment – CellTiter-Glo, IC50, dose response (AID 1117339); type: functional; details: HCT-116
# [21] = biological target: Beta-lactamase (Pseudomonas aeruginosa, UniProt Q79MP6);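 also: biochemical dose-response test of metallo-beta-lactamase enzyme inhibition, read out by epi-absorbance; purified recombinant IMP-1 metallo-beta-lactamase with nitrocefin as substrate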
# Sequence of Beta-lactamase (Pseudomonas aeruginosa, UniProt Q79MP6) (Q79MP6 whole entry): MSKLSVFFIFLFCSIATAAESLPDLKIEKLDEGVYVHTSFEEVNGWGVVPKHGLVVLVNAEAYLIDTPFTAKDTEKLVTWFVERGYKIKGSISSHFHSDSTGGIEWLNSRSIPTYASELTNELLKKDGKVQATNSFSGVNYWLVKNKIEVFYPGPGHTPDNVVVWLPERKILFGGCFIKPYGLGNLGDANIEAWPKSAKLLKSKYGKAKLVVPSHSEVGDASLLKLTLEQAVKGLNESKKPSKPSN
# [22] = biological target: Beta-lactamase (Salmonella choleraesuis (strain SC-B67), UniProt Q5J463)
# Sequence of Beta-lactamase (Salmonella choleraesuis (strain SC-B67), UniProt Q5J463) (Q5J463 whole entry): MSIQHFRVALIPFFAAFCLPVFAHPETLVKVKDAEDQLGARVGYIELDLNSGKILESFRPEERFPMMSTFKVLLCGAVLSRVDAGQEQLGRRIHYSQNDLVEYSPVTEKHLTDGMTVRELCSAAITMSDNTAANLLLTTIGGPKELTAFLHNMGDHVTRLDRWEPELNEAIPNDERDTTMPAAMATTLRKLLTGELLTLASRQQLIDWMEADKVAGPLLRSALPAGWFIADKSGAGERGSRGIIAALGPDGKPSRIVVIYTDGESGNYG
# [23] = biological target: Intestinal-type alkaline phosphatase (Mus musculus, UniProt P24822); experiment: PubChem AID 488874; type: functional
# Sequence of Intestinal-type alkaline phosphatase (Mus musculus, UniProt P24822) (P24822 whole entry): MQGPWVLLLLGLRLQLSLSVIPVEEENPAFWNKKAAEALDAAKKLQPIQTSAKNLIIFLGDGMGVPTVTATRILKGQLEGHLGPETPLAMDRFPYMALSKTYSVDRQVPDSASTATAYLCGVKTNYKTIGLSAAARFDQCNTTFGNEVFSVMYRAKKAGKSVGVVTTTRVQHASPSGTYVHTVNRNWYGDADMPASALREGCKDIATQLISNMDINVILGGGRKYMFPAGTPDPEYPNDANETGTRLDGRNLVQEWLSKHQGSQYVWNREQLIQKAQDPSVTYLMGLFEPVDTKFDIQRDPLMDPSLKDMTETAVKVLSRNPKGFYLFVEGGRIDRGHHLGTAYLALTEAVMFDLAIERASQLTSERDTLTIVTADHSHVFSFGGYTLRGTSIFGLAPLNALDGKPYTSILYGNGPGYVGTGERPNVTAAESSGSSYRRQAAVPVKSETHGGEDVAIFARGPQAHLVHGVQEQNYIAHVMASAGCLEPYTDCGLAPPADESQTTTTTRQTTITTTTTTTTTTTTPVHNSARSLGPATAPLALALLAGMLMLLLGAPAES
# [24] = biological target: T3, Intestinal-type alkaline phosphatase (Homo sapiens, UniProt P09923); experiment: human IAP inhibitors, dose response, biochemical, luminescent, uHTS hits, set 2 (AID 488793); type: functional
# T3 sequence (P09923 whole entry): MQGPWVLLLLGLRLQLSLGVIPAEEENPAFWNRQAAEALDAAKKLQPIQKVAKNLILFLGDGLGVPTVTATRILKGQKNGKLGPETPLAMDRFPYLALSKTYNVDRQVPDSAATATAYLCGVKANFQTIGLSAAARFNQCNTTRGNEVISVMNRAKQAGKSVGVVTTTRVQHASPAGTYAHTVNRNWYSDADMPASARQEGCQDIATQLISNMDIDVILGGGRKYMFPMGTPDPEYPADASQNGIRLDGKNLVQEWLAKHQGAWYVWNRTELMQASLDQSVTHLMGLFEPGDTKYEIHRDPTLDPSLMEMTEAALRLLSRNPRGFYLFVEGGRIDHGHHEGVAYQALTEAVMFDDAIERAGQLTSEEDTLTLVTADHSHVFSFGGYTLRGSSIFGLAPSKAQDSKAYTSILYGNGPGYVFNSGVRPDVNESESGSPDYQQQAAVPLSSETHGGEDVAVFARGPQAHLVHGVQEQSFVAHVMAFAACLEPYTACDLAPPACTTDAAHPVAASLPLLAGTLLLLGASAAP
# [25] = biological target: T3, Intestinal-type alkaline phosphatase; experiment: Dose Response confirmation of uHTS hits from a small molecule inhibitors of human intestinal alkaline phosphatase via a luminescent assay. [Related pubchem assays (depositor defined):AID2544, AID2574]; type: functional
# [26] = biological target: ORF 73 (Human herpesvirus 8, UniProt O40947); experiment: inhibitors of C-LANA binding to LBS DNA, dose response, biochemical, fluorescence polarization, cherry-picked samples (AID 504725); set-up: species or system Human gammaherpesvirus 8;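 also: fluorescence polarization of a labeled DNA duplex reporting LANA DNA binding; potency is for inhibitors that block LANA binding to the DNA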
# Sequence of ORF 73 (O40947 whole entry): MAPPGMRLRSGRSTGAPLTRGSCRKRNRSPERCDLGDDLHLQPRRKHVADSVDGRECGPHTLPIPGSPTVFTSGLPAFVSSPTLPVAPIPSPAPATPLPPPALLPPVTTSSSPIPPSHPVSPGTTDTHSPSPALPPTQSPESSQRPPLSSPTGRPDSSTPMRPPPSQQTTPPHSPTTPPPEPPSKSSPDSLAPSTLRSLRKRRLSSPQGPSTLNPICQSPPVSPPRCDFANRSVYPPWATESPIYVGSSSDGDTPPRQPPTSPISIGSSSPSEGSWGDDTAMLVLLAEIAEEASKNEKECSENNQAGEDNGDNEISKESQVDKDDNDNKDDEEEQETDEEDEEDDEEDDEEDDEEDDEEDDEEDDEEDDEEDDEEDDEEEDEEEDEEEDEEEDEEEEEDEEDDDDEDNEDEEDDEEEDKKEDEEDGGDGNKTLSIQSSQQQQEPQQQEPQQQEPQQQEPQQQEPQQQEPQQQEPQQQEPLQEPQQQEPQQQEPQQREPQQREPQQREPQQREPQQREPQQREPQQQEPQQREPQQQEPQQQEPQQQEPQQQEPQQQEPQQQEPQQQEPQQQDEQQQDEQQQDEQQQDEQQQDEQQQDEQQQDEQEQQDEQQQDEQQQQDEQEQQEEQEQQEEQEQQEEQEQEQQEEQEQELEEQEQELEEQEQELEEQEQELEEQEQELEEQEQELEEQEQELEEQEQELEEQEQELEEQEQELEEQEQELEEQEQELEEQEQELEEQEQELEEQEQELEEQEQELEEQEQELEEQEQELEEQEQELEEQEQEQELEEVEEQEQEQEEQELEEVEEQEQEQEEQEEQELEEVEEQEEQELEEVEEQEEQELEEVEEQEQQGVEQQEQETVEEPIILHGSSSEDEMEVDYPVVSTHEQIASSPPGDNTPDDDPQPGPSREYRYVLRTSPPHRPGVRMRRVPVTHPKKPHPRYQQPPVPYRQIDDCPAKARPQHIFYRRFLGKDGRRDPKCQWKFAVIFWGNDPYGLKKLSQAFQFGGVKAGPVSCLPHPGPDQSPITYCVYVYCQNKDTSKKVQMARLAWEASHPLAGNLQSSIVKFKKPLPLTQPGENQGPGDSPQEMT
# [27] = biological target: T4, Alkaline phosphatase, tissue-nonspecific isozyme (Homo sapiens, UniProt P05186); experiment: inhibition of tissue-nonspecific alkaline phosphatase – biochemical, dose response (AID 488882); type: functional
# T4 sequence (P05186 whole entry): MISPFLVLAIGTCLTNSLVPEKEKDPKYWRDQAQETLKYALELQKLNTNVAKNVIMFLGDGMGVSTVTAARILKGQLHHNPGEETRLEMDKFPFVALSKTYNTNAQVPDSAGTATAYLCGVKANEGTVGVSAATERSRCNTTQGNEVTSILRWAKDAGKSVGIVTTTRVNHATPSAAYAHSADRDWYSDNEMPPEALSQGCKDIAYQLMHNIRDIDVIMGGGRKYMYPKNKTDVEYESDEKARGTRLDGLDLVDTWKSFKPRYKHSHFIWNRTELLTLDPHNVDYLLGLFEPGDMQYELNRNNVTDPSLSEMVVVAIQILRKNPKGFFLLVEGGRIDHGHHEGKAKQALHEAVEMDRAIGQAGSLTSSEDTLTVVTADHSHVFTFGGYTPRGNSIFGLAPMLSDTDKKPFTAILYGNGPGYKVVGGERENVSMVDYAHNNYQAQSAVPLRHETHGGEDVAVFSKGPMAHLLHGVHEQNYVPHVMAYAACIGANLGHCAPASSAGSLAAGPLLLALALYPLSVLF
# [28] = biological target: T5, Insulin-degrading enzyme (Homo sapiens, UniProt P14735); experiment: activators of recombinant IDE enzyme, dose response, counter-screen for IDE activator project, biochemical, fluorescence polarization (AID 588681)
# T5 sequence (P14735 whole entry): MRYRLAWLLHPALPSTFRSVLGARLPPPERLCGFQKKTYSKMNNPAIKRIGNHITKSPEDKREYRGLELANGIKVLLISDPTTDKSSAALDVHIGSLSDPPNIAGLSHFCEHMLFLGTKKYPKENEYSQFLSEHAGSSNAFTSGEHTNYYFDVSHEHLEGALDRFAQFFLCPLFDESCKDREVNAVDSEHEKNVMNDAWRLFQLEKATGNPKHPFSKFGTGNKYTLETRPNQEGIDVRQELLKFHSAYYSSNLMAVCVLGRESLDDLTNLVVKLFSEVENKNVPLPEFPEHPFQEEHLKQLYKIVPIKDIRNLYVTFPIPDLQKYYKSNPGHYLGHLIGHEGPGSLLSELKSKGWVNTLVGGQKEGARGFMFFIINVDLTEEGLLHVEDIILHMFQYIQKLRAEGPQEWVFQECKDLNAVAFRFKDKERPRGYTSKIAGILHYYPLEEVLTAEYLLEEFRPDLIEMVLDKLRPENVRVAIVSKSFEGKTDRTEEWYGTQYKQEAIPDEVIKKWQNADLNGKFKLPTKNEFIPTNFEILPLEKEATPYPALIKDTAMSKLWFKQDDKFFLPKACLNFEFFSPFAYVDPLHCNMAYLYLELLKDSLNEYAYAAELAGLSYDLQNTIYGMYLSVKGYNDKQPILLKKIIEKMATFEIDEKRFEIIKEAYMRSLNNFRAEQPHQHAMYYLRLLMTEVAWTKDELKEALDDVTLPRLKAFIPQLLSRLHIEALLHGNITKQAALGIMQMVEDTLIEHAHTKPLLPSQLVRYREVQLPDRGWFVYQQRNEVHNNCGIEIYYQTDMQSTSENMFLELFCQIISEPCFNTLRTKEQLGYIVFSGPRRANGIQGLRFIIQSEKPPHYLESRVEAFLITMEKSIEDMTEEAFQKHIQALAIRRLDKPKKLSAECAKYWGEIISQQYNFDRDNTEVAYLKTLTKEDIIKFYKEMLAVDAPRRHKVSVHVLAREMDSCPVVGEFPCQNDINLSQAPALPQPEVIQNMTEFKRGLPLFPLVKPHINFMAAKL
# [29] = biological target: T5, Insulin-degrading enzyme; experiment: activators of endogenous IDE in HEK cells, dose response, cell-based, fluorescence polarization (AID 588439); type: functional
# [30] = system: HEK293; experiment: HEK cell cytotoxicity by LDH release, dose response, cytotoxicity control for IDE activator project, fluorescence, HEK cells (AID 588440); type: functional, cell-based; details: Homo sapiens;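 also: cytotoxicity by LDH release measuring loss of membrane integrity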
# [31] = system: HEK293; experiment: optical interference in Abeta FP readout, dose response, artefact control for IDE activator project, biochemical, fluorescence polarization (AID 588442); type: functional, cell-based; details: Homo sapiens
# T1 sequence (P41143 whole entry): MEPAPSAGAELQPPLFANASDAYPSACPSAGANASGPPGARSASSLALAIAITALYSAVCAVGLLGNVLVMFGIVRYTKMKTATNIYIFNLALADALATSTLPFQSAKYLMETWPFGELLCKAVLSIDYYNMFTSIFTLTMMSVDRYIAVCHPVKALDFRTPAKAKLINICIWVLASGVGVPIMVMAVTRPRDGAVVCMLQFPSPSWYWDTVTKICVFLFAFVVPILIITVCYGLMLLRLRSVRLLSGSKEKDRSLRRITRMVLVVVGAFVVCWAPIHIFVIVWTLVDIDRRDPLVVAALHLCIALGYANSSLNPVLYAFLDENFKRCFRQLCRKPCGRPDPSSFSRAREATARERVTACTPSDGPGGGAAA
smiles,measurement,setting,value
Oc1c(Cl)cc(Cl)c2cccnc12 [CHLOROXINE],IC50,[1],> 32 µM (inactive)
same,EC50,[2],> 32 µM (inactive)
same,EC50,[3],0.258 µM (active)
same,EC50,[4],> 32 µM (inactive)
same,IC50,[5],4.56 µM (active)
same,EC50,[6],> 31.5 µM (inactive)
same,IC50,[7],> 32 µM
same,EC50,[8],3.31 µM (active)
same,AC50,[9],1.05 µM (active)
same,AC50,[10],0.511 µM (active)
same,IC50,[11],> 10 µM (inactive)
same,IC50,[12],0.0438 µM (active)
same,IC50,[13],0.0627 µM (active)
same,IC50,[14],0.0475 µM (active)
same,IC50,[15],0.495 µM (active)
same,IC50,[16],0.0493 µM (active)
same,IC50,[17],> 10 µM (inactive)
same,IC50,[18],> 20 µM (inactive)
same,IC50,[19],0.409 µM (active)
same,IC50,[20],0.0393 µM (active)
Nc1ccc(-c2c3ccc(=O)cc-3oc3cc(O)ccc23)cc1C(=O)O,IC50,[21],8.62 µM (active)
same,IC50,[22],3.41 µM (active)
same,IC50,[23],20.3 µM (active)
same,IC50,[24],28.1 µM (active)
same,IC50,[25],14.5 µM (inactive)
same,AC50,[26],0.532 µM (active)
same,IC50,[27],34 µM (active)
same,EC50,[28],> 54.7 µM (inactive)
same,EC50,[29],> 54.7 µM (inactive)
same,IC50,[30],> 89.2 µM (inactive)
same,EC50,[31],> 54.7 µM (inactive)
